# Experimental data: ChEMBL document CHEMBL5331103, “Discovery of novel 2-hydroxyl-4-benzyloxybenzyl aniline derivatives as potential multifunctional agents for the treatment of Parkinson's disease” (Eur J Med Chem, 2023)
# Calls of active or inactive are those of the source. The calls are words filed in the database; no cut-off is given here.
# Experiments:
# [1] = species: Mus musculus; conditions: C57BL/6C, dose 50.0 mg/kg, route ig, time 3.0 weeks
# [2] = target: T1, Amine oxidase [flavin-containing] A (Homo sapiens, UniProt P21397); experiment: Inhibition of MAO-A (unknown origin) using kynuramine as substrate at 10 uM preincubated for 30 mins followed by substrate addition and measured after 30 mins by fluorescence based analysis relative to control; conditions: 0.5 h, time 60 min
# T1 sequence (P21397 whole entry): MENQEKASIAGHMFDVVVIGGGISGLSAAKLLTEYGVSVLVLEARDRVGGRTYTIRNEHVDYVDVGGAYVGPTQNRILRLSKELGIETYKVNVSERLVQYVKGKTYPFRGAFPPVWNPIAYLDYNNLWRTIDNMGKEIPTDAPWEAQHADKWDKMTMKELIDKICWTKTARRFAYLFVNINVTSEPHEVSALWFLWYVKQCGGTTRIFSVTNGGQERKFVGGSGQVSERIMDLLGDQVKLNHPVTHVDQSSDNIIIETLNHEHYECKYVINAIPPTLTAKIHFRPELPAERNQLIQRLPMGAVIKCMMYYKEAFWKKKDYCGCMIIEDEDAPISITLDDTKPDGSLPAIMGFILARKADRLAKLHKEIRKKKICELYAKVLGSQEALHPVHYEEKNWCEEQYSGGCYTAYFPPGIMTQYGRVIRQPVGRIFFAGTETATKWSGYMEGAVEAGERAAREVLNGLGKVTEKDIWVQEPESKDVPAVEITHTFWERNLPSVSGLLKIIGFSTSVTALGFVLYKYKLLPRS
# [3] = target: T2, Amine oxidase [flavin-containing] B (Homo sapiens, UniProt P27338)
# T2 sequence (P27338 whole entry): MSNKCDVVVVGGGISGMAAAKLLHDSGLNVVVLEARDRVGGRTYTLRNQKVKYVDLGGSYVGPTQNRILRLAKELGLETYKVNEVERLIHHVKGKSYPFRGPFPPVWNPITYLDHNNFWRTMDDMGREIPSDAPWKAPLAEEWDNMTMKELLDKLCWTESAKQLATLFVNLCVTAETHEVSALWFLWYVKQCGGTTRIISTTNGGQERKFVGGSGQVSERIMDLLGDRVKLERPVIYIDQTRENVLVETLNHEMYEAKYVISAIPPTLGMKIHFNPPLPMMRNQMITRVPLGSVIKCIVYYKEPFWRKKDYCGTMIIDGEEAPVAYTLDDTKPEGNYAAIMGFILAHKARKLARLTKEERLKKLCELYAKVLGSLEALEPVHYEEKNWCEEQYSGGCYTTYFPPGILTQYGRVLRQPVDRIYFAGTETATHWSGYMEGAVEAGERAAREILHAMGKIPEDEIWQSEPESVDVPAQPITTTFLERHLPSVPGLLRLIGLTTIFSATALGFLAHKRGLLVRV
# Description: Inhibition of MAO-B (unknown origin) using kynuramine as substrate preincubated for 30 mins followed by substrate addition and measured after 30 mins by fluorescence based analysis
# [4] = test system: BV-2; experiment: Anti-neuroinflammatory activity in mouse BV-2 cells assessed as inhibition of LPS-induced NO production at 10 uM preincubated for 30 mins followed by LPS stimulation and measured after 24 hrs by Griess reagent based assay relative to control; assay type: functional; conditions: time 24.5 hrs
# [5] = test system: PC-12; experiment: Cytotoxicity against rat PC-12 cells assessed as reduction in cell viability at 10 uM incubated for 2 hrs by MTT assay; assay type: toxicity, cell-based; conditions: pc-12, 2 h
# [6] = test system: BV-2; experiment: Anti-neuroinflammatory activity in mouse BV-2 cells assessed as inhibition of LPS-induced TNF-alpha production at 10 uM preincubated for 30 mins followed by LPS stimulation and measured after 24 hrs by ELISA analysis relative to control; assay type: functional; conditions: time 24.5 hrs
# [7] = test system: PC-12; experiment: Neuroprotective activity against H2O2-induced cell damage in rat PC-12 cells assessed as increase in cell viability at 10 uM preincubated for 2 hrs followed by H2O2 addition and measured after 24 hrs by MTT assay (reference value: 50.3%); assay type: functional; conditions: time 26 hrs
# [8] = test system: BV-2; experiment: Inhibition of LPS-induced ROS production in mouse BV-2 cells at 10 uM preincubated for 30 mins followed by LPS-stimulation and measured after 30 mins by DCFH-DA based fluorescence microplate reader analysis relative to control; assay type: functional; conditions: BV-2, 1 h, time 60 min
# [9] = test system: BV-2; experiment: Cytotoxicity against mouse BV-2 cells assessed as reduction in cell viability upto 10 uM incubated for 30 mins by MTT assay; assay type: toxicity, cell-based; conditions: bv-2, 0.5 h
Structure (SMILES),inhibition at 10 µM [2],IC50 [3],further results
C[C@H](NCc1ccc(OCc2cccc(F)c2)cc1)C(N)=O [SAFINAMIDE],25.7%,,inhibition [1]: Active
Oc1cc(OCc2ccc(F)cc2)ccc1CNc1ccccc1F,38.3%,35 nM,
Oc1cc(OCc2cccc(Cl)c2)ccc1CNc1ccccc1,20.5%,249 nM,
Oc1cc(OCc2ccc(F)c(Cl)c2)ccc1CNc1ccccc1,49.2%,33 nM,
Oc1cc(OCc2ccccc2)ccc1CNc1ccccc1,14.7%,481 nM,
Oc1cc(OCc2cccc(C(F)(F)F)c2)ccc1CNc1ccccc1,9.25%,297 nM,
Oc1cc(OCc2ccc(Cl)c(Cl)c2)ccc1CNc1ccccc1,52.5%,49 nM,
COc1cccc(COc2ccc(CNc3ccccc3)c(O)c2)c1,< 5%,343 nM,
Oc1ccc(/C=C/c2cc(O)cc(O)c2)cc1 [RESVERATROL],,,inhibition at 10 µM [4]: 51.8%; Activity [5]: Non-Toxic; inhibition at 10 µM [6]: 52.2%; Activity [7]: 63.6%; inhibition at 10 µM [8]: 56.7%; Activity [9]: Non-Toxic
Cc1ccc(COc2ccc(CNc3ccccc3)c(O)c2)cc1,26.4%,366 nM,
